From PMC7465636 (Biomolecules, 2020)
Where two headings read alike, the source gives them in different places.

How the values were obtained:
HEK293 cells = type: cell-based, human; conditions: 72 h; for survival of HEK293 cells (MTT): 0.0488–50 µM; for toxicity in HEK 293 cells (MTT): at the tested concentrations (0.0488–50 µM)
Method: Human Embryonic Kidney Cells (HEK293) were kept in 75 cm^2 culture bottles (Greiner Bio-One) at 37 °C, 5% CO2 containing Dulbecco’s Minimal Essential Medium (DMEM), added with 10% fetal bovine serum, 1% Streptomycin and Penicillin and 3.7 g/L of NaHCO3 (Sigma). Cell passages were performed with trypsin-EDTA (Invitrocell). The number of cells was monitored by counting in a Neubauer chamber.
To evaluate the toxicity of the triazole compounds in mammalian cells, Human Embryonic Kidney cells (HEK293). Cells were plated in flat-bottom 96-well plates at a density of 10^4 cells per well and incubated for 24 h in 150 µL media at 37 °C, 5% CO2. Cells were then treated with different concentrations of each compound, ranging from 0.0488 µM to 50 µM in 200 µL DMEM for 72 h at 37 °C and 5% CO2. Cells treated with DMSO (v/v), with the highest concentration of solvent at 0.25% were used as control. After incubation, 40 µL of MTT reagent (solution 5 mg/mL in PBS) was added to each well, and cells were incubated for further 3 h at 37 °C and 5%CO2 [35]. The media was removed, and 100 µL of DMSO was added in each well. The plates were agitated in a shaker for 10 min to dissolve precipitates. The absorbance was read at 570 nm in a FlexStation 3 (Molecular Devices). Three experiments were performed independently in triplicates.

[1] = target: P. falciparum PfSR25- (knockout strain for the PfSR25 receptor); test: In vitro growth assay with flow cytometry, PfSR25- knockout strain; type: cell-based, Plasmodium falciparum; conditions: for IC50 for the knockout strain compared with the 3D7 strain: PfSR25- versus 3D7; for IC50: Plasmodium falciparum, 72 h
Method: (§1) Erythrocytes infected with P. falciparum 3D7 and the knockout strain for the PfSR25 receptor (PfSR25-) were kept in 175 cm^2 culture bottles (Greiner Bio-One) containing RPMI 1640 with 0.5% NaHCO3, 0.04% sulfate gentamicin, 0.05% hypoxanthine and supplemented with 0.5% AlbuMAX I (Gibco). The culture bottles were maintained at 37 °C and an atmosphere with 90% N2, 5% O2 and 5% CO2 Parasitemia was determined from a blood smear stained with Panotic Rapid (Laborclin).
(§2) Red blood cells infected with P. falciparum (iRBC) asynchronously with 0.3% initial parasitemia and 1% hematocrit were incubated with different concentrations of compounds ranging from 0.0488 µM to 50 µM, for 72 h at 37 °C under mixture of gases. The control group was treated with solvent Dimethyl Sulfoxide (DMSO) (v/v); with the highest concentration of solvent bring 0.25%.
(§3) Parasitemia was determined from the dot plots (side scatter versus fluorescence) of at least […] acquired on an Accuri C6 flow cytometer (Becton Dickinson). Initial gating was carried out with unstained, uninfected erythrocytes to account for erythrocyte autofluorescence.
(§4) After 72 h, iRBCs were stained with nucleic acid marker SYBR Green I (1X) (Invitrogen) and mitochondria marker based on membrane potential MitoTracker Deep Red (50 nM) (Invitrogen), and were incubated for 20 min. at 37 °C. The final parasitemia was obtained by flow cytometer using a BD Accuri C6 Flow Cytometer, collecting 10^³ cells. Dot plots using FlowJo V10.6.2 software determined Parasitemia. At least three independent experiments were performed in triplicate to calculate the IC50 values for each drug.
We also assessed the role of PfSR25 in terms of its susceptibility to compounds with a better antimalarial activity (9, 13, 19, 21, 22, 24 and 29) and compounds with less activity (21) based on the results obtained with the 3D7 screening. Thus, the tests were carried out like that described above and are represented in Figure 5. However, we used the knockout strain for the receptor-like PfSR25- for the tests.

P. falciparum 3D7 [2] = conditions: cited from earlier work
P. falciparum 3D7 [3] = test: In vitro growth assay with flow cytometry, P. falciparum 3D7; type: cell-based, Plasmodium falciparum; conditions: P. falciparum 3D7, 72 h, 0.0488–50 µM, ± standard error of the mean, read-out: IC50
Method: as §1, §2, §3, §4
In order to identify potential antimalarials present in the library of compounds derived from the 1H-1,2,3-triazoles and 2H-1,2,3-triazoles, we used a culture of P. falciparum (3D7) to perform the screening tests of the compounds. To assess parasitemia at the end of the parasites incubation with the compounds for 72 h, we used a double-label: (1) SYBR Green I to mark DNA and (2) MitoTracker Deep Red as a mitochondria marker. The latter being dependent on the membrane potential, we ensured that only the marking and selection of viable parasites occurred.

[4] = type: physicochemical; conditions: in our experimental conditions
Text: The methods used to prepare the 1-aryl-1H-1,2,3-triazoles and 2-aryl-2H-1,2,3-triazoles (54 examples) involved classical chemical transformations, and all evaluated compounds were from the group’s molecular bank and were present in other published works. […] This information can be important for future studies.

P. falciparum Dd2 = conditions: cited from earlier work
[5] = Plasmodium falciparum, 3D7, 72 h

Which results are given for `CCCCCCCCCC(=O)OCc1cn(-c2ccc(Cl)cc2)nn1` [Compound 9]?
survival of HEK293 cells (MTT) (HEK293 cells): above 80%; toxicity in HEK 293 cells (MTT) (HEK293 cells): no toxicity; IC50 for the knockout strain compared with the 3D7 strain [1]: lower IC50 values for the knockout strain; IC50 [1]: 1.55 ± 0.55 µM

For `CCOC(=O)C1CN(Cc2c[nH]nn2)c2cc(Cl)c(F)cc2C1=O` (stereo not shown) [III], which IC50 (P. falciparum 3D7 [2]) is on record?
Its IC50 is 1.33 µM.

For `O/N=C/c1cn(-c2cc(Cl)ccc2Cl)nn1` [Compound 14], which IC50 (P. falciparum 3D7 [3]; [5]) is on record?
The IC50 was 21.5 ± 0.84 µM.

With `O=C(OCc1cn(-c2ccccc2)nn1)c1ccccc1` [Compound 7] as the compound, how does the IC50 (P. falciparum 3D7 [3]; [5]) read?
Its IC50 is 22.9 ± 0.34 µM.

For `COc1ccc(-n2cc(/C=N/Nc3ccc(F)cc3)nn2)cc1` [Compound 53, (E)-4-((2-(4-fluorophenyl)hydrazono)methyl)-1-(4-methoxyphenyl)-1H-1,2,3-triazole], which melting point is on record?
The melting point was 195 to 197 °C.

What about the solubilization [4] of the same compound?
The solubilization was “weren’t able to be solubilized”.

For `CCCOCc1cn(-c2cc(Cl)ccc2Cl)nn1` [Compound 4], which IC50 (P. falciparum 3D7 [3]; [5]) is on record?
The IC50 was 20.4 ± 0.73 µM.

Which results are given for `Cc1ccc(C)c(N/N=C/c2cn(-c3cc(Cl)cc(Cl)c3)nn2)c1` [Compound 23]?
IC50 (P. falciparum 3D7 [3]): 9.23 ± 1.68 µM; IC50 (P. falciparum 3D7 [3]; [5]): < 10 µM

For `COc1ccc(-n2cc(/C=N/Nc3ccc(Cl)cc3)nn2)cc1` [Compound 25, (E)-4-((2-(4-chlorophenyl)hydrazono)methyl)-1-(4-methoxyphenyl)-1H-1,2,3-triazole], which IC50 (P. falciparum 3D7 [3]) is on record?
The IC50 was 9 ± 3.27 µM.

And the IC50 (P. falciparum 3D7 [3]; [5])?
The IC50 was less than 10 µM.

With `CCCCCCCCCC(=O)OCc1cn(-c2cc(Cl)cc(Cl)c2)nn1` [Compound 10] as the compound, how does the IC50 (P. falciparum 3D7 [3]; [5]) read?
Its IC50 is 14.6 ± 0.29 µM.

For `CCOCc1cn(-c2cc(Cl)cc(Cl)c2)nn1` [Compound 2], which IC50 (P. falciparum 3D7 [3]; [5]) is on record?
The IC50 was 15.4 ± 2.26 µM.

With `Clc1ccc(Cl)c(N/N=C/c2cn(-c3cc(Cl)ccc3Cl)nn2)c1` [Compound 26, (E)-1-(2,5-dichlorophenyl)-4-((2-(2,5-dichlorophenyl)hydrazono)methyl)-1H-1,2,3-triazole] as the compound, how does the melting point read?
The melting point was 200 to 201 °C.

And the IC50 (P. falciparum 3D7 [3])?
Its IC50 is 9.4 ± 2.87 µM.

What about the IC50 (P. falciparum 3D7 [3]; [5]) of the same compound?
The IC50 was less than 10 µM.

For `COc1ccc(-n2cc(/C=N/Nc3cc(C)ccc3C)nn2)cc1` [Compound 54, (E)-4-((2-(2,5-dimethylphenyl)hydrazono)methyl)-1-(4-methoxyphenyl)-1H-1,2,3-triazole], which solubilization [4] is on record?
Its solubilization is “weren’t able to be solubilized”.

Which IC50 (P. falciparum 3D7 [3]; [5]) does the source give for `C(=N\Nc1ccccc1)/c1cnn(-c2ccccc2)n1` [Compound 15] here?
The IC50 was 18.1 ± 1.92 µM.

Which results are given for `O=[N+]([O-])c1ccc(-n2cc(COc3ccc4cc(Br)ccc4c3)nn2)cc1` [I]?
IC50 (P. falciparum 3D7 [2]): 14.7 µM; IC50 (P. falciparum Dd2): 13.6 µM

What does the source list for `Clc1cc(Cl)cc(-n2cc(/C=N/Nc3ccc(Br)cc3)nn2)c1` [Compound 21, (E)-4-((2-(4-bromophenyl)hydrazono)methyl)-1-(3,5-dichlorophenyl)-1H-1,2,3-triazole]?
IC50 (P. falciparum 3D7 [3]): 29.3 ± 0.34 µM; IC50 (P. falciparum 3D7 [3]; [5]): > 25 µM; IC50 for the knockout strain compared with the 3D7 strain [1]: lower IC50 values for the knockout strain; IC50 [1]: 12.4 ± 2.51 µM

For `Fc1ccc(N/N=C/c2cnn(-c3ccccc3)n2)cc1` [Compound 17], which IC50 (P. falciparum 3D7 [3]; [5]) is on record?
Its IC50 is 14.7 ± 1.28 µM.

For `O=C(N/N=C/c1cn(-c2cc(Cl)cc(Cl)c2)nn1)c1ccncc1` [Compound 29, (E)-N′-((1-(3,5-dichlorophenyl)-1H-1,2,3-triazol-4-yl)methylene)isonicotinohydrazide], which “survival of HEK293 cells (MTT)” value (HEK293 cells) is on record?
The value was “above 80%”.

And the “toxicity in HEK 293 cells (MTT)” value (HEK293 cells)?
Its value is “no toxicity”.

And the IC50 (P. falciparum 3D7 [3])?
Its IC50 is 6.96 ± 1.44 µM.

What about the IC50 (P. falciparum 3D7 [3]; [5]) of the same compound?
Its IC50 is less than 10 µM.

And the IC50 [1]?
Its IC50 is 9.91 ± 2.94 µM.

With `CCOCc1cn(-c2ccc(Cl)cc2)nn1` [Compound 1] as the compound, how does the IC50 (P. falciparum 3D7 [3]; [5]) read?
Its IC50 is 11.7 ± 0.74 µM.
